IC50 data for 21 compounds are collected here from ChEMBL document CHEMBL4229482, “Design, synthesis and biological evaluation of novel spiro-pentacylamides as acetyl-CoA carboxylase inhibitors” (Bioorg Med Chem, 2018).

For one experiment, the system named is NCI-H1975. The experiment in a line: Antiproliferative activity against human NCI-H1975 cells after 48 hrs by MTT assay. Type of experiment: functional, cell-based. The conditions noted are these: NCI-H1975, 48 h. In general terms: Tetrazolium dyes change colour on reduction, which living cells bring about.
A further experiment concerns A549. In words: cells. The note with it: Homo sapiens, A549, 48 h.
A further experiment relates to HCT-116. In words: cells. The conditions noted are these: Homo sapiens, HCT-116, 48 h.
In another experiment the test system is Caco-2. In words: Antiproliferative activity against human Caco2 cells after 48 hrs by MTT assay. Type of experiment: functional, cell-based. The note with it: Caco-2, 48 h.
The target of the next experiment is Acetyl-CoA carboxylase 2 (Homo sapiens, UniProt O00763). In words: Inhibition of C-terminal His-tagged full length human ACC2 expressed in Baculovirus infected Sf9 insect cells using acetyl CoA as substrate preincubated for 15 mins followed by substrate addition and measured after 60 mins by ADP-Glo assay. In general terms: ADP-Glo turns the ADP formed in a reaction into a luminescent signal.
Sequence of Acetyl-CoA carboxylase 2 (O00763 whole entry): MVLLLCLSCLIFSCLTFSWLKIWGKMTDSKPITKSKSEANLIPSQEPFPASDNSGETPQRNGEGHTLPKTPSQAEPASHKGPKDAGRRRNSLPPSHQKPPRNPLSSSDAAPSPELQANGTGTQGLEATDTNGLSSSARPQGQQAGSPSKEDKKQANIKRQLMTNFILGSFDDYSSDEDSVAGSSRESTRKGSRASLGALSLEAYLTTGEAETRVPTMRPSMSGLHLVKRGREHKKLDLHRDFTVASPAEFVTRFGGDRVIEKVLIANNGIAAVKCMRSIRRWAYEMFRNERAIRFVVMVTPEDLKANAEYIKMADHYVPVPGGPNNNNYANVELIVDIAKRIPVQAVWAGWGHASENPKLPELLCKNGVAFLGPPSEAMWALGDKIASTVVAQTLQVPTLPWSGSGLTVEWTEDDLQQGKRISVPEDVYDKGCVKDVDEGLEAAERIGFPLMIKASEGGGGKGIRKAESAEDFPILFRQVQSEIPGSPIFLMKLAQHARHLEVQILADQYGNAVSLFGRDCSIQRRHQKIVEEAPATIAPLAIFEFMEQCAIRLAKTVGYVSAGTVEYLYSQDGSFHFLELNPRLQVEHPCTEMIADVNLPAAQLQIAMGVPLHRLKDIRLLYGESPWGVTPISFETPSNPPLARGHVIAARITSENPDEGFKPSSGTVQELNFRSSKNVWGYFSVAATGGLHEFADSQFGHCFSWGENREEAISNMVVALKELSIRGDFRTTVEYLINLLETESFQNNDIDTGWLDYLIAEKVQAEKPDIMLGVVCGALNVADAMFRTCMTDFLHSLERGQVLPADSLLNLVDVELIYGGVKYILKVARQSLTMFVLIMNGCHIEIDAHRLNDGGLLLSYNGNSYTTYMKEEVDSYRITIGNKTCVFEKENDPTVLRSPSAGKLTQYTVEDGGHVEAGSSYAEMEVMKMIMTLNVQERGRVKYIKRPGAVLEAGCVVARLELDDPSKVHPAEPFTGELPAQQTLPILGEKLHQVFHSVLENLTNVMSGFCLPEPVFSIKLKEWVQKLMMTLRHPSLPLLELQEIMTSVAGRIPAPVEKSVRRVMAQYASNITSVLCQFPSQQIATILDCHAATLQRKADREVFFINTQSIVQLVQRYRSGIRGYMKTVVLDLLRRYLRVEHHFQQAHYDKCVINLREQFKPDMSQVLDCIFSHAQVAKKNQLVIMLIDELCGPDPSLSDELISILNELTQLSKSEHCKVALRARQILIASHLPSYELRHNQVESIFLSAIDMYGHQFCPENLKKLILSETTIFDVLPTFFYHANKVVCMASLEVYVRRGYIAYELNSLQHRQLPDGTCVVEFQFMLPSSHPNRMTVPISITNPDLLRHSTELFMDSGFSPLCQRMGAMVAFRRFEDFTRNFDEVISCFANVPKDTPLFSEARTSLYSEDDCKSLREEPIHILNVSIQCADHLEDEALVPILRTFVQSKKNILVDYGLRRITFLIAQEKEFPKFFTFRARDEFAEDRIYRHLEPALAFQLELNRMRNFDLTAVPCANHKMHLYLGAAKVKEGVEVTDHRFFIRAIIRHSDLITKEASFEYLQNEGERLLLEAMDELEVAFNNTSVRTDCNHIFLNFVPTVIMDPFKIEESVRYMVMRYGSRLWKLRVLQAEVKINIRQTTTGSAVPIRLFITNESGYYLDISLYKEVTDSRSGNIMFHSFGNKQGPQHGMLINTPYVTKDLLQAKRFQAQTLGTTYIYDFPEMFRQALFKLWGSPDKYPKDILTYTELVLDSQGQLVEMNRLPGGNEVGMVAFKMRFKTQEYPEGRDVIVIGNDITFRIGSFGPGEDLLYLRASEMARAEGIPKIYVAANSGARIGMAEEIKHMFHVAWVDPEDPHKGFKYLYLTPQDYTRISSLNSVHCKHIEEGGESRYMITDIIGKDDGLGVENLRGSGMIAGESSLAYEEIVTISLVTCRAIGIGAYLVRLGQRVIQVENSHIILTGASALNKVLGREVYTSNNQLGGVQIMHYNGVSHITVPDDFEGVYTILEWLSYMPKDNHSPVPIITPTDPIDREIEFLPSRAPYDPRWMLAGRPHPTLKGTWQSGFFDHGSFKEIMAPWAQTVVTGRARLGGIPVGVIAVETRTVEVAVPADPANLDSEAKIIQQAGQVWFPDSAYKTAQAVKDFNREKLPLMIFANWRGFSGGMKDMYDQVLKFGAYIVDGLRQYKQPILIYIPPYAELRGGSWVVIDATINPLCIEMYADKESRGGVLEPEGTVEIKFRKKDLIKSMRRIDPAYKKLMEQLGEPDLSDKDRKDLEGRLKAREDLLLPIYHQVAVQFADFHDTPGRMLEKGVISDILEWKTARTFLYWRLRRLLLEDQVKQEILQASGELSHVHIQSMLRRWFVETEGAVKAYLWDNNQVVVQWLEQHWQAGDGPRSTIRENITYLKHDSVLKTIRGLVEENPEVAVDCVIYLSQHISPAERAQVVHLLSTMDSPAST

Another experiment concerns SW-620. The experiment in a line: cells. The conditions noted are these: Homo sapiens, SW-620, 48 h.
For the next experiment, the target named is Acetyl-CoA carboxylase 1 (Homo sapiens, UniProt Q13085). The experiment in a line: Inhibition of C-terminal His-tagged recombinant human ACC1 (1 to 2383 residues) expressed in Baculovirus infected Sf9 insect cells using acetyl CoA as substrate preincubated for 15 mins followed by substrate addition and measured after 60 mins by ADP-Glo assay.

Description for SW-620: Antiproliferative activity against human SW620 cells after 48 hrs by MTT assay

`Cc1cc(C(=O)N2CCC3(CC2)CC(=O)c2nn(C(C)(C)C)cc2O3)cc2cn[nH]c12`: the IC50 in the experiment on NCI-H1975 is 0.21 µM; in the experiment on A549, 0.74 µM; with HCT-116, 2.43 µM; in the experiment on Caco-2 it was 6.51 µM; against Acetyl-CoA carboxylase 2, 0.008 µM; in the experiment on SW-620, 3.19 µM. In addition, the half-maximal inhibitory concentration (IC50) on Acetyl-CoA carboxylase 1 is 0.032 µM.
Consider `O=C(c1ccc2cn[nH]c2c1)N1CCC2(CC1)CC(=O)N(c1ccc(C(F)(F)F)cc1)C2`, for which the 50% inhibitory concentration (IC50) worked out at 2.74 µM against Acetyl-CoA carboxylase 2 and 4.73 µM on Acetyl-CoA carboxylase 1.
As for `O=C(c1ccc2[nH]c3c(c2c1)CCCC3)N1CCC2(CC1)CC(=O)N(c1ccc(C(F)(F)F)cc1)C2`, the IC50 is greater than 10 µM in the experiment on A549; 8.67 µM in the experiment on HCT-116; 1.11 µM on Acetyl-CoA carboxylase 2; 4.74 µM with SW-620; 1.95 µM on Acetyl-CoA carboxylase 1.
Regarding `CC(C)c1ccc(-c2nc3cc(C(=O)N4CCC5(CC4)CC(=O)N(c4ccc(C(F)(F)F)cc4)C5)ccc3[nH]2)cc1`, the concentration for half-maximal inhibition (IC50) is greater than 10 µM with NCI-H1975; 1.03 µM in the experiment on A549; 6.21 µM with HCT-116; greater than 10 µM in the experiment with Caco-2; 0.764 µM at Acetyl-CoA carboxylase 2; greater than 10 µM in the experiment on SW-620. Moreover, the IC50 on Acetyl-CoA carboxylase 1 came out at 1.15 µM.
Regarding `O=C(c1ccc2[nH]ccc2c1)N1CCC2(CC1)CC(=O)N(c1ccc(C(F)(F)F)cc1)C2`, the 50% inhibitory concentration (IC50) on Acetyl-CoA carboxylase 2 and on Acetyl-CoA carboxylase 1 was greater than 5 µM in each case.
In the case of `Cc1cc(C(=O)N2CCC3(CC2)CC(=O)N(c2ccc(C#N)cc2)C3)cc2cn[nH]c12`, the values for the half-maximal inhibitory concentration (IC50) on Acetyl-CoA carboxylase 2 and at Acetyl-CoA carboxylase 1 were greater than 5 µM and 3.99 µM, respectively.
As to `O=C(c1ccc2cc[nH]c2c1)N1CCC2(CC1)CC(=O)N(c1ccc(C(F)(F)F)cc1)C2`, the IC50 at Acetyl-CoA carboxylase 2 is greater than 5 µM; on Acetyl-CoA carboxylase 1, 4.95 µM.
Take `O=C(c1cnc2ccccc2c1)N1CCC2(CC1)CC(=O)N(c1ccc(C(F)(F)F)cc1)C2`: the IC50 on Acetyl-CoA carboxylase 2 and on Acetyl-CoA carboxylase 1 was greater than 5 µM throughout.
As for `O=C(c1ccc2cccnc2c1)N1CCC2(CC1)CC(=O)N(c1ccc(C(F)(F)F)cc1)C2`, the IC50 on Acetyl-CoA carboxylase 2 is greater than 5 µM; on Acetyl-CoA carboxylase 1 it was 4.92 µM.
As for `O=C(c1ccc2[nH]c(-c3ccco3)nc2c1)N1CCC2(CC1)CC(=O)N(c1ccc(C(F)(F)F)cc1)C2`, the 50% inhibitory concentration (IC50) was 0.72 µM in the experiment with NCI-H1975; 7.96 µM in the experiment with A549; greater than 10 µM in the experiment on HCT-116; 0.976 µM against Acetyl-CoA carboxylase 2; 3.26 µM in the experiment on SW-620; 1.05 µM on Acetyl-CoA carboxylase 1.
Regarding `Cc1cc(C(=O)N2CCC3(CC2)CC(=O)N(c2ccc(C#N)cc2F)C3)cc2cn[nH]c12`, the values for the IC50 against Acetyl-CoA carboxylase 2 and at Acetyl-CoA carboxylase 1 were greater than 5 µM and 3.56 µM, respectively.
With `Cc1nc2cc(C(=O)N3CCC4(CC3)CC(=O)N(c3ccc(C(F)(F)F)cc3)C4)ccc2[nH]1`, the half-maximal inhibitory concentration (IC50) is 3.02 µM at Acetyl-CoA carboxylase 2 and 2.22 µM at Acetyl-CoA carboxylase 1.
For the compound `COC(=O)c1ccc(N2CC3(CCN(C(=O)c4cc(C)c5[nH]ncc5c4)CC3)CC2=O)cc1`, the 50% inhibitory concentration (IC50) in the experiment with NCI-H1975 is 5.64 µM; with A549, 2.11 µM; in the experiment on HCT-116, greater than 10 µM; in the experiment on Caco-2 it was greater than 10 µM; against Acetyl-CoA carboxylase 2 it was 1.88 µM; with SW-620 it was greater than 10 µM. For the same compound, the IC50 on Acetyl-CoA carboxylase 1 is 2.24 µM.
As for `Cc1cc(N2CC3(CCN(C(=O)c4cc(C)c5[nH]ncc5c4)CC3)CC2=O)ccc1C#N`, the IC50 on Acetyl-CoA carboxylase 2 stood at 3.77 µM; on Acetyl-CoA carboxylase 1 it was 2.01 µM.
As to `O=C(c1ccc2[nH]c(-c3ccccc3)nc2c1)N1CCC2(CC1)CC(=O)N(c1ccc(C(F)(F)F)cc1)C2`, the concentration for half-maximal inhibition (IC50) in the experiment on NCI-H1975 was 0.38 µM; with A549 it was 1.92 µM; in the experiment with HCT-116, 1.22 µM; in the experiment on Caco-2, 5.42 µM; against Acetyl-CoA carboxylase 2, 0.397 µM; in the experiment on SW-620, 2.05 µM. In addition, at Acetyl-CoA carboxylase 1, the IC50 came out at 0.527 µM.
On to `O=C(c1ccc2[nH]c3c(c2c1)CCC3)N1CCC2(CC1)CC(=O)N(c1ccc(C(F)(F)F)cc1)C2`, for which the results for the IC50 against Acetyl-CoA carboxylase 2 and at Acetyl-CoA carboxylase 1 were 3.48 µM and 4.27 µM, respectively.
Take `O=C(c1ccc2ncccc2c1)N1CCC2(CC1)CC(=O)N(c1ccc(C(F)(F)F)cc1)C2`: the IC50 on Acetyl-CoA carboxylase 2 and on Acetyl-CoA carboxylase 1 was greater than 5 µM throughout.
Consider `Cc1cc(C(=O)N2CCC3(CC2)CC(=O)N(c2ccc(C(=O)O)cc2)C3)cc2cn[nH]c12`, for which the IC50 against Acetyl-CoA carboxylase 2 came to 4.65 µM; at Acetyl-CoA carboxylase 1, 2.79 µM.
On to `Cc1cc(C(=O)N2CCC3(CC2)CC(=O)N(c2ccc(C(F)(F)F)cc2)C3)cc2cn[nH]c12`, for which the IC50 with NCI-H1975 was greater than 10 µM; in the experiment on A549 it was greater than 10 µM; with HCT-116 it was 8.67 µM; in the experiment on Caco-2, greater than 10 µM; on Acetyl-CoA carboxylase 2, 0.944 µM; with SW-620 it was greater than 10 µM. Further, at Acetyl-CoA carboxylase 1, the half-maximal inhibitory concentration (IC50) was determined as 1.2 µM.
Turning to `O=C(c1ccc2[nH]c(-c3ccncc3)nc2c1)N1CCC2(CC1)CC(=O)N(c1ccc(C(F)(F)F)cc1)C2`, the half-maximal inhibitory concentration (IC50) with NCI-H1975 was 0.39 µM; with A549, 3.49 µM; in the experiment on HCT-116, 7.64 µM; in the experiment with Caco-2 it was greater than 10 µM; against Acetyl-CoA carboxylase 2, 1.24 µM; with SW-620 it was 7.24 µM. For the same compound, at Acetyl-CoA carboxylase 1, the half-inhibitory concentration (IC50) was 2.65 µM.
`CCCc1nc2cc(C(=O)N3CCC4(CC3)CC(=O)N(c3ccc(C(F)(F)F)cc3)C4)cc(C)c2[nH]1`: the half-maximal inhibitory concentration (IC50) with NCI-H1975 was 0.27 µM; with A549, greater than 10 µM; in the experiment on HCT-116 it was 4.21 µM; in the experiment with Caco-2 it was greater than 10 µM; at Acetyl-CoA carboxylase 2, 1.94 µM; in the experiment on SW-620 it was 1.82 µM. Also, the half-maximal inhibitory concentration (IC50) on Acetyl-CoA carboxylase 1 stood at 1.69 µM.

The term IC50 denotes the midpoint of a concentration-inhibition curve.
